Measured values published in ChEMBL document CHEMBL6134832, “Expanding the utilization of binding pockets proves to be effective for noncovalent small molecule inhibitors against SARS-CoV-2 Mpro” (Eur J Med Chem, 2025).
The source made the active and inactive calls. The calls are words filed in the database; no cut-off is given here.

Tests used:
Assay type in all cases: functional, organism-based
SARS-CoV-2 [1] = assay: Antiviral activity against SARS-CoV-2 omicron BA.5 variant infected in K18-hACE2 transgenic mouse model assessed as reduction in disease severity at 15 to 30 mg/kg, po pretreated for 2 hrs followed by viral infection and measured on 2 dpi; conditions: Severe acute respiratory syndrome coronavirus 2, dose 15-30 mg/kg, time 50.0 hrs
SARS-CoV-2 [2] = assay: Antiviral activity against SARS-CoV-2 omicron BA.5 variant infected in K18-hACE2 transgenic mouse model assessed as inflammatory cell infiltration in lung at 90 mg/kg, po pretreated for 2 hrs followed by viral infection and measured on 2 dpi; conditions: Severe acute respiratory syndrome coronavirus 2, time 50.0 hrs
SARS-CoV-2 [3] = assay: Antiviral activity against SARS-CoV-2 omicron BA.5 variant infected in po dosed K18-hACE2 transgenic mouse model assessed as reduction in viral RNA loads in lung pretreated for 2 hrs followed by viral infection and measured on 2 dpi; conditions: Severe acute respiratory syndrome coronavirus 2, time 50.0 hrs
SARS-CoV-2 [4] = assay: Antiviral activity against SARS-CoV-2 omicron BA.5 variant infected in K18-hACE2 transgenic mouse model assessed as septal thickening in lung at 90 mg/kg, po pretreated for 2 hrs followed by viral infection and measured on 2 dpi; conditions: Severe acute respiratory syndrome coronavirus 2, time 50.0 hrs
SARS-CoV-2 [5] = assay: Antiviral activity against SARS-CoV-2 omicron BA.5 variant infected in K18-hACE2 transgenic mouse model assessed as reduction in degree of damage at 15 to 30 mg/kg, po pretreated for 2 hrs followed by viral infection and measured on 2 dpi; conditions: Severe acute respiratory syndrome coronavirus 2, dose 15-30 mg/kg, time 50.0 hrs
SARS-CoV-2 [6] = assay: Antiviral activity against SARS-CoV-2 omicron BA.5 variant infected in K18-hACE2 transgenic mouse model assessed as reduction in viral titers in lung at 15 to 90 mg/kg, po pretreated for 2 hrs followed by viral infection and measured on 2 dpi; conditions: Severe acute respiratory syndrome coronavirus 2, dose 15-90 mg/kg, time 50.0 hrs
SARS-CoV-2 [7] = assay: Antiviral activity against SARS-CoV-2 omicron BA.5 variant infected in K18-hACE2 transgenic mouse model assessed as reduction in viral RNA loads in lung at 30 mg/kg, po pretreated for 2 hrs followed by viral infection and measured on 2 dpi; conditions: Severe acute respiratory syndrome coronavirus 2, time 50.0 hrs
SARS-CoV-2 [8] = assay: Antiviral activity against SARS-CoV-2 omicron BA.5 variant infected in K18-hACE2 transgenic mouse model assessed as reduction in viral titers in lung at 30 mg/kg, po pretreated for 2 hrs followed by viral infection and measured on 2 dpi; conditions: Severe acute respiratory syndrome coronavirus 2, time 50.0 hrs
SARS-CoV-2 [9] = assay: Antiviral activity against SARS-CoV-2 omicron BA.5 variant infected in K18-hACE2 transgenic mouse model assessed as septal thickening in lung at 40 mg/kg, po pretreated for 2 hrs followed by viral infection and measured on 2 dpi; conditions: Severe acute respiratory syndrome coronavirus 2, time 50.0 hrs
SARS-CoV-2 [10] = assay: Antiviral activity against SARS-CoV-2 omicron BA.5 variant infected in K18-hACE2 transgenic mouse model assessed as inflammatory cell infiltration in lung at 40 mg/kg, po pretreated for 2 hrs followed by viral infection and measured on 2 dpi; conditions: Severe acute respiratory syndrome coronavirus 2, time 50.0 hrs
SARS-CoV-2 [11] = assay: Antiviral activity against SARS-CoV-2 omicron BA.5 variant infected in K18-hACE2 transgenic mouse model assessed as reduction in degree of damage at 20 mg/kg, po pretreated for 2 hrs followed by viral infection and measured on 2 dpi; conditions: Severe acute respiratory syndrome coronavirus 2, time 50.0 hrs
SARS-CoV-2 [12] = assay: Antiviral activity against SARS-CoV-2 omicron BA.5 variant infected in K18-hACE2 transgenic mouse model assessed as reduction in disease severity at 20 mg/kg, po pretreated for 2 hrs followed by viral infection and measured on 2 dpi; conditions: Severe acute respiratory syndrome coronavirus 2, time 50.0 hrs
SARS-CoV-2 [13] = assay: Antiviral activity against SARS-CoV-2 omicron BA.5 variant infected in K18-hACE2 transgenic mouse model assessed as reduction in viral titers in lung at 20 to 80 mg/kg, po pretreated for 2 hrs followed by viral infection and measured on 2 dpi; conditions: Severe acute respiratory syndrome coronavirus 2, dose 20-80 mg/kg, time 50.0 hrs
SARS-CoV-2 [14] = assay: Antiviral activity against SARS-CoV-2 omicron BA.5 variant infected in K18-hACE2 transgenic mouse model assessed as reduction in viral RNA loads in lung at 80 mg/kg, po pretreated for 2 hrs followed by viral infection and measured on 2 dpi; conditions: Severe acute respiratory syndrome coronavirus 2, time 50.0 hrs
SARS-CoV-2 [15] = assay: Antiviral activity against SARS-CoV-2 omicron BA.5 variant infected in K18-hACE2 transgenic mouse model assessed as septal thickening in lung at 40 to 80 mg/kg, po pretreated for 2 hrs followed by viral infection and measured on 2 dpi; conditions: Severe acute respiratory syndrome coronavirus 2, dose 40-80 mg/kg, time 50.0 hrs
SARS-CoV-2 [16] = assay: Antiviral activity against SARS-CoV-2 omicron BA.5 variant infected in K18-hACE2 transgenic mouse model assessed as inflammatory cell infiltration in lung at 40 to 80 mg/kg, po pretreated for 2 hrs followed by viral infection and measured on 2 dpi; conditions: Severe acute respiratory syndrome coronavirus 2, dose 40-80 mg/kg, time 50.0 hrs

Row | SMILES | Activity (SARS-CoV-2 [1]) | Activity (SARS-CoV-2 [2]) | Activity (SARS-CoV-2 [3]) | Activity (SARS-CoV-2 [4]) | Activity (SARS-CoV-2 [5]) | Activity (SARS-CoV-2 [6]) | Activity (SARS-CoV-2 [7]) | Activity (SARS-CoV-2 [8]) | Activity (SARS-CoV-2 [9]) | Activity (SARS-CoV-2 [10]) | Activity (SARS-CoV-2 [11]) | Activity (SARS-CoV-2 [12]) | Activity (SARS-CoV-2 [13]) | Activity (SARS-CoV-2 [14]) | Activity (SARS-CoV-2 [15]) | Activity (SARS-CoV-2 [16])
1 | Cc1ccc(C#N)cc1Cn1c(=O)n(-c2cncc(SC3CC3)c2)c(=O)[nH]/c1=N\c1cc2cn(C)nc2cc1Cl | Active | Mild_effect | Dose-dependent-effect | Active | Active | Active |  |  |  |  |  |  |  |  |  | 
2 | Cn1cnc(Cn2c(=O)[nH]/c(=N\c3cc4cn(C)nc4cc3Cl)n(Cc3cc(F)c(F)cc3F)c2=O)n1 |  |  | Dose-dependent-effect |  |  |  | Active | Active | Active | Mild_effect |  |  |  |  |  | 
3 | Cn1cc2cc(/N=c3\[nH]c(=O)n(-c4cccnc4)c(=O)n3Cc3cc(F)c(F)cc3F)c(Cl)cc2n1 |  |  | Dose-dependent-effect |  |  |  |  |  |  |  | Active | Active | Active | Active | Active | Mild_effect
